Entries after “also recorded” stand apart in the source; their conditions may differ.

We go through eleven compounds from patent US20070274928A1, “Novel Cyclic Oxygenated Compounds Having Cooling, Fragrance, and Flavor Properties, and Uses Thereof” (priority 2003, published 2007).

The subject of the first test is mouth. As to the kind of experiment: Taste evaluation of aqueous solutions by mouth rinse (cooling sensory effect). It is filed as in vivo, human. Particulars: 5 ppm solution in purified water, 10 ml rinsed in mouth for 10 sec. As to the method: A 5 ppm solution of 98% pure ketone (10) in purified water was prepared. 10 ml of the solution was tasted by rinsing it in the mouth for 10 sec.
A series of solutions of a mixture of compounds (7) and (8) (approximately 60:40 ratio) were prepared in purified water for subsequent evaluation of cooling sensory effects and taste properties at different concentrations. The solutions were tasted by taking 10 ml of each sample in the mouth, rinsing the mouth for 30 seconds, and discarding the solution by spitting. The cooling sensory effects were recorded as extreme (5), strong (4), moderate (3), weak (2), or none (1), and the ranks were noted over a period of time of 4 hours. Only one sample was tasted per day. All samples were kept in a refrigerator until the taste evaluation and were brought to room temperature before tasting.
Regarding `CC(C)=CC1C(=O)C=C(C)C1(C)C` (stereo not drawn) [(10)], the cooling sensory effect result is “no discernible cooling sensory effect”.

System in another test: not listed separately
Nature of the test: Organoleptic evaluation of cooling sensory effect of purified compounds. Format: in vivo, human. The following applies: pure / purified compound.
In the case of `CC(C)=CC1C(=O)C=C(C)C1(C)C` (stereo not drawn) [(10)], the cooling sensory effect result is “completely devoid of a cooling sensory effect”. As to `CC1CC2(O)OC(C)(C)CC2C1(C)C` (stereo not drawn) [compound (15)], the cooling sensory effect entry is given as “moderate to strong cooling sensory effect”. Take `CC1=C[C@]2(C)OC(=O)CC2C1(C)C` (stereo partly drawn) [compound (6)]: the cooling sensory effect entry is listed as “lacks the cooling sensory effect”. For the compound `CC1CCC(C(C)CO)C(=O)C1` (stereo not drawn) [(52)], the cooling sensory effect entry is reported as “potent cooling properties”.

With `CC1=CC2(O)OC(C)(C)CC2C1(C)C` (stereo not drawn) [compound (7)], the cooling sensory effect entry is given as “powerful cooling effect; also recorded: very powerful cooling sensory effect”. For `CC1=CC(=O)C(CC(C)(C)O)C1(C)C` (stereo not drawn) [compound (8)], the cooling sensory effect result is given as “relatively weak cooling effect”. Turning to `CC1(C)CC2C(=O)CC(C)(O1)C2(C)C` (stereo not drawn) [(147)], the cooling sensory effect result is given as “no significant cooling sensory effect”. Turning to `CC1CC(=O)C(CC(C)(C)O)C1(C)C` (stereo not drawn) [compound (16)], the cooling sensory effect result was “weak cooling sensory effect”.

As for `CC1=CC2(C)OC(C)(C)CC2C1(C)C` (stereo not drawn) [compound (11)], the cooling sensory effect entry is on record as “devoid of cooling sensory properties”.

The next test concerns nasal cavity. Nature of the test: Olfactory evaluation of neat sample, cooling sensory effect on smelling. It is filed as in vivo, human.
Details: not given
How it is done:
10 ml of 20% NaOH in water were added to the 1 ml of ethanolic solution of 120 mg of the oil resulting from the Grignard reaction, and the whole was stirred at room temperature for 1 hour.
An analytically pure sample of a lactone having formula (129) was obtained by subjecting 30 mg of the fraction 2A sample to column chromatography on silica gel using hexane:ethyl acetate 8:1 as an eluent.
For the compound `CC1CC2(C)OC(=O)CC2C1(C)C` (stereo not drawn) [(129)], the “cooling sensory effect upon smelling the sample” value was “did not exhibit any significant ability to impart the cooling sensation”.

For another test, the system named is tongue. As to the kind of experiment: Application of 5% solution to the tongue. It is filed as in vivo, human. Particulars: 0.1 ml of a 5% solution applied to the tongue. As to the method: 3.66 grams of compound (5), 10 ml of water, 5 ml of ethanol, and 1.70 g of sodium bicarbonate were stirred together at room temperature until evolution of carbon dioxide ceased (approximately 30 min). The whole was evaporated under reduced pressure at 85° C. until a constant weight was reached. The resulting transparent solid (4.4 g) was sodium ketocampholenate monohydrate.
As to sodium ketocampholenate monohydrate, the “duration of tingling-tangy sensation” value was “about 10 min”.
